Assay results published in ChEMBL document CHEMBL3396979, “Synthesis and characterization of 1'-C-cyano-2'-fluoro-2'-C-methyl pyrimidine nucleosides as HCV polymerase inhibitors” (Bioorg Med Chem Lett, 2015).

What was measured:
Hepatitis C virus [1] = assay: Antiviral activity against HCV genotype 1b infected in human HuH7 cells by replicon based assay; format: functional, cell-based, Hepacivirus hominis; conditions: Huh-7
[2] = Inhibition of HCV genotype 1b NS5B RNA dependent RNA polymerase assessed as reduction in triphosphate activity; set-up: species or system Hepatitis C virus subtype 1b
Hepatitis C virus [3] = assay: Antiviral activity against HCV genotype 1a infected in human HuH7 cells by replicon based assay; format: functional, cell-based, Hepacivirus hominis; conditions: subtype 1a, Huh-7
[4] = Cytotoxicity against human HuH7 cells; format: cell-based, Huh-7
Hepatitis C virus [5] = assay: Antiviral activity against HCV genotype 2a infected in human HuH7 cells by replicon based assay; format: functional, cell-based, Hepacivirus hominis; conditions: Huh-7
[6] = Drug metabolism in human HuH7 cells bearing HCV replicons assessed as formation of triphosphates at 10 uM after 72 hrs by liquid chromatography coupled to triple quadrupole mass spectrometry; format: ADME, cell-based; conditions: huh-7, 72 h
[7] = Drug metabolism in human HuH7 cells bearing HCV replicons assessed as formation of uridine-type triphosphates at 10 uM after 72 hrs by liquid chromatography coupled to triple quadrupole mass spectrometry; format: ADME, cell-based; conditions: huh-7, 72 h
[8] = Inhibition of HCV genotype 2a NS5B RNA dependent RNA polymerase assessed as reduction in triphosphate activity; set-up: species or system Hepatitis C virus subtype 2a
[9] = Inhibition of HCV genotype 3a NS5B RNA dependent RNA polymerase assessed as reduction in triphosphate activity; set-up: species or system Hepatitis C virus subtype 3a
[10] = Inhibition of HCV genotype 4a NS5B RNA dependent RNA polymerase assessed as reduction in triphosphate activity; set-up: species or system Hepatitis C virus subtype 4a

| Compound | EC50 (Hepatitis C virus [1]) [µM] | IC50 ([2]; read-out: IC50) [µM] | EC50 (Hepatitis C virus [3]) [µM] | other results |
| --- | --- | --- | --- | --- |
| C[C@@]1(O)[C@H](O)[C@@H](CO)O[C@@]1(C#N)n1ccc(=O)[nH]c1=O | > 89 | 27 | > 89 |  |
| C[C@@]1(F)[C@H](O)[C@@H](CO)O[C@@]1(C#N)n1ccc(=O)[nH]c1=O | > 89 |  | > 89 | IC50 [2]: Not Active |
| C[C@@]1(F)[C@H](O)[C@@H](CO)O[C@@]1(C#N)n1ccc(N)nc1=O | > 89 | 57 | > 89 |  |
| C[C@@]1(O)[C@H](O)[C@@H](CO)O[C@H]1n1ccc(N)nc1=O |  | 1.7 |  |  |
| C[C@@]1(F)[C@H](O)[C@@H](CO)O[C@H]1n1ccc(=O)[nH]c1=O | > 89 | 0.7 | > 89 | IC50 [8]: 700 nM; IC50 [9]: 700 nM; IC50 [10]: 700 nM |

Further lines, with some results ahead:

| EC50 (Hepatitis C virus [1]) [µM] | IC50 ([2]; read-out: IC50) [µM] | EC50 (Hepatitis C virus [3]) [µM] | Compound | other results |
| --- | --- | --- | --- | --- |
| 13.1 | 1.9 |  | C[C@@]1(O)[C@H](O)[C@@H](CO)O[C@H]1n1ccc(=O)[nH]c1=O |  |
| 2.3 |  | 0.6 | C[C@@]1(F)[C@H](O)[C@@H](CO)O[C@H]1n1ccc(N)nc1=O | Ki [2]: 60 nM |
| > 89 | 17.7 | 76 | C[C@@]1(O)[C@H](O)[C@@H](CO)O[C@@]1(C#N)n1ccc(N)nc1=O |  |
| 17.6 |  | 2.9 | CC(C)OC(=O)[C@H](C)N[P@](=O)(OC[C@H]1O[C@@](C#N)(n2ccc(N)nc2=O)[C@](C)(F)[C@@H]1O)Oc1ccccc1 | CC50 [4]: > 89 µM; EC50 (Hepatitis C virus [5]): 2300 nM; Drug metabolism [6]: metabolite_detected; Drug metabolism [7]: metabolite_notdetected |
| 63.5 |  |  | CC(C)OC(=O)[C@H](C)N[P@](=O)(OC[C@H]1O[C@@](C#N)(n2ccc(=O)[nH]c2=O)[C@](C)(F)[C@@H]1O)Oc1ccccc1 | CC50 [4]: > 89 µM; EC50 (Hepatitis C virus [5]): > 88000 nM; Drug metabolism [6]: metabolite_detected |
